Measured values reported in article PMC10441322 (bioRxiv, 2023).

How the values were obtained:
[1] = molecular target: T1, Shaker voltage-gated potassium channel (Drosophila melanogaster, UniProt P08510); assay: cut-open voltage clamp of Shaker in Xenopus oocytes, […] mV, pH […]; format: cell-based
CYP2E1 = CYP2E1 (Homo sapiens, UniProt P05181); assay: Vivid CYP2E1 fluorogenic competitive inhibition assay, dose-response; format: biochemical
[2] = molecular target: T1, Shaker voltage-gated potassium channel; assay: cut-open voltage clamp of Shaker in Xenopus laevis oocytes, […] mV, pH […]; format: cell-based

T1 sequence (P08510 whole entry): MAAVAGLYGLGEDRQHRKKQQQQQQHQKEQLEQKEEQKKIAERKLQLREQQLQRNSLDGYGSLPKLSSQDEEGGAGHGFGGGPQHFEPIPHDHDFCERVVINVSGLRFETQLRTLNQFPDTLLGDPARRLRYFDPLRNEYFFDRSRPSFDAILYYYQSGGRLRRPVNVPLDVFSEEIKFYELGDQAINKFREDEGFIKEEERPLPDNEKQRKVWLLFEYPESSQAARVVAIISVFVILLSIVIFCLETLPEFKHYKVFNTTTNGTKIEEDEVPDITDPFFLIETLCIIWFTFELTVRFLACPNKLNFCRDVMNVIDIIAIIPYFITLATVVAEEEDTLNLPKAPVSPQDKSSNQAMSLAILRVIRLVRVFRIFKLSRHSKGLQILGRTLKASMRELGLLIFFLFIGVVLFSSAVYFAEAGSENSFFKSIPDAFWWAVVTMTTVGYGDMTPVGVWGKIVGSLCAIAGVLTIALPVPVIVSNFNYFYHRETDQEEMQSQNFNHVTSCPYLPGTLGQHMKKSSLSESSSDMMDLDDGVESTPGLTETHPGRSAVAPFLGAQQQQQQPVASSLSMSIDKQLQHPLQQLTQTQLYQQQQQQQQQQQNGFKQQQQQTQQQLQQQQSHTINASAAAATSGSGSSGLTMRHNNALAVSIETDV
Chain of CYP2E1 (P16435 2-677): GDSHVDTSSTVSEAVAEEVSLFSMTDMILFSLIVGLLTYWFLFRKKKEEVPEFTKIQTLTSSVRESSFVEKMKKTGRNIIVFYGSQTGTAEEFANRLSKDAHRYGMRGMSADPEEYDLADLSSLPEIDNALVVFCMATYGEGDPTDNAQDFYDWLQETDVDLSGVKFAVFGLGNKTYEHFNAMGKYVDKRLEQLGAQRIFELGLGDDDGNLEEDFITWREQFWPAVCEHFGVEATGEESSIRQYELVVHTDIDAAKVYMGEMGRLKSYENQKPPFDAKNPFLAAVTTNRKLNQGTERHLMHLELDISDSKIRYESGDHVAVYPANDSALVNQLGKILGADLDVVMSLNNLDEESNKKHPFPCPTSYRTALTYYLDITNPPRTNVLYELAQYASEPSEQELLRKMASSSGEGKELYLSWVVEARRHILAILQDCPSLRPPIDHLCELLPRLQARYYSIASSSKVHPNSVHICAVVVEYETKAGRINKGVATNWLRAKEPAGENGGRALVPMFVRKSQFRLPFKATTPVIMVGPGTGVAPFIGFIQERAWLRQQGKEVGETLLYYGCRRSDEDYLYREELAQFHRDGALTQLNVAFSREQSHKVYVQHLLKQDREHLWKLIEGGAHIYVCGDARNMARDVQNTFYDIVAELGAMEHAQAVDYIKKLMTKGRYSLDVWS
Chain of CYP2E1 (P05181 whole entry): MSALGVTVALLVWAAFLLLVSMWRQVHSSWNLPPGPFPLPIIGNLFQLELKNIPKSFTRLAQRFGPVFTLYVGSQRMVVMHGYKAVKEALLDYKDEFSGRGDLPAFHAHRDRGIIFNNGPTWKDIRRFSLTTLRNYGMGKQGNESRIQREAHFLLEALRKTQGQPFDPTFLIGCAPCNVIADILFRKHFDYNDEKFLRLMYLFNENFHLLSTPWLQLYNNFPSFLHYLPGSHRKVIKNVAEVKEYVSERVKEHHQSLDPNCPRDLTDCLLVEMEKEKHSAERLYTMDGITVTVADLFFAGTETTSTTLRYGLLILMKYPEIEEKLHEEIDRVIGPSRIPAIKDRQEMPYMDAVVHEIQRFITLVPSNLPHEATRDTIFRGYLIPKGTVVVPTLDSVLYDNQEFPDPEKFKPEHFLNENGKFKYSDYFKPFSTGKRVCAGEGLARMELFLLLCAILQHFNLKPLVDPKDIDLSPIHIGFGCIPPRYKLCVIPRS

Row | Compound | IC50 [1] | IC50 (CYP2E1) | IC50 [2]
1 | Cc1cnccc1N [3Me4AP] | 66 µM |  | 
2 | Nc1ccncc1F [3F4AP, 3-fluoro-4-aminopyridine] | 122 µM | 17 µM | 
3 | Cc1cncc(F)c1N [5Me3F4AP, 3-fluoro-5-methylpyridin-4-amine] |  | 35.9 µM | 301 µM
